Test results: patent US6387417B1, “Bactericide against vancomycin resistant enterococcus” (priority 2000, dated 2002)
Read-outs that look alike come from different tables or passages of the source.

Columns and labels:
[1] = tested on: Enterococcus faecium KIH-237; assay: MIC of antibiotics for the strain used; format: cell-based; conditions: KIH237, E. faecium KIH-237, collected from an imported chicken
[2] = tested on: Enterococcus gallinarum KIH-241; assay: MIC of antibiotics for the strain used; format: cell-based
[3] = tested on: Enterococcus faecium KIH-234; assay: MIC of antibiotics for the strain used; format: cell-based; conditions: KIH234, E. faecium KIH-234, collected from a patient
[4] = tested on: Enterococcus faecalis KIH-C233; assay: MIC of antibiotics for the strain used; format: cell-based; conditions: E. faecalis KIH-C233, collected from a patient
[5] = expected maximum; cited from earlier work
[6] = Solubility of hinokitiol in liquid carrier; format: physicochemical
[7] = Enterococcus gallinarum, E. gallinarum KIH-241, collected from a chicken grown in Japan, read-out: MIC
[8] = Enterococcus faecalis, KIHC233, read-out: MIC

Row | Compound | MIC [1] | MIC [2, 7] | MIC [3] | MIC [4, 8] | other results
1 | CC1(C)S[C@@H]2[C@H](NC(=O)[C@H](N)c3ccccc3)C(=O)N2[C@H]1C(=O)O [ABPC, aminobenzylpenicillin] | 4 µg/mL | 4 µg/mL | 16 µg/mL | 1 µg/mL | 
2 | C[C@@H](O)[C@H]1C(=O)N2C(C(=O)O)=C(SCCN=CN)C[C@H]12 [IPM, imipenem] |  |  |  |  | MIC ([2]; E. gallinarum KIH-241, collected from a chicken grown in Japan): 1 µg/mL; MIC [4]: 1 µg/mL
3 | CN[C@H](CC(C)C)C(=O)N[C@H]1C(=O)N[C@@H](CC(N)=O)C(=O)N[C@H]2C(=O)N[C@H]3C(=O)N[C@H](C(=O)N[C@H](C(=O)O)c4cc(O)cc(O)c4-c4cc3ccc4O)[C@H](O)c3ccc(c(Cl)c3)Oc3cc2cc(c3O[C@@H]2O[C@H](CO)[C@@H](O)[C@H](O)[C@H]2O[C@H]2C[C@](C)(N)[C@H](O)[C@H](C)O2)Oc2ccc(cc2Cl)[C@H]1O [VCM, vancomycin] | 500 µg/mL |  | 0.5 µg/mL | 2 µg/mL | MIC ([2]; Enterococcus gallinarum, GALLINARUM): 8 µg/mL; concentration of vancomycin in blood at maximum [5]: no more than 6 μg/ml
4 | CC(C)c1cccc(=O)c(O)c1 [hinokitiol, Hinokitiol] |  |  |  |  | hinokitiol content achievable in the composition ([6]; alcohol as liquid carrier, without aloe extract and the like extract): up to 5 % by mass; hinokitiol concentration obtainable in aqueous solution ([6]; water with surface active agent (glycerin fatty acid ester) and/or botanical emulsifier (quillaia saponin)): up to 10 % by mass; hinokitiol concentration obtainable in aqueous solution ([6]; water, combined with the aloe extract and like extracts): about 1 % by mass

More lines, main results first:

Row | MIC [1] | MIC [2, 7] | MIC [3] | MIC [4, 8] | Compound | other results
5 | > 32 µg/mL | > 32 µg/mL | > 32 µg/mL | > 32 µg/mL | CO[C@@]1(NC(=O)CSCC#N)C(=O)N2C(C(=O)O)=C(CSc3nnnn3C)CS[C@@H]21 [CMZ, cefmetazole] | 
6 | > 32 µg/mL | > 1 µg/mL | > 32 µg/mL | > 32 µg/mL | CC[C@H]1OC(=O)[C@H](C)[C@@H](O[C@H]2C[C@@](C)(OC)[C@@H](O)[C@H](C)O2)[C@H](C)[C@@H](O[C@@H]2O[C@H](C)C[C@H](N(C)C)[C@H]2O)[C@](C)(O)C[C@@H](C)C(=O)[C@H](C)[C@@H](O)[C@]1(C)O [EM, erythromycin] | 
7 | 16 µg/mL | 1 µg/mL | 16 µg/mL | 4 µg/mL | CC1(C)S[C@@H]2[C@H](NC(=O)Cc3ccccc3)C(=O)N2[C@H]1C(=O)O [PCG, benzylpenicillin] | 
